Experimental data from US12208089B2, “Adjusting expression level of a gene encoding a Sirtuin protein by treating a human subject with a nitroxide” (priority 2021, dated 2025).

Test system: SIRT2
Assay: Effects of Tempol on gene expression in cardiac tissue of mice, chip-based microarray
Type: in vivo
Details: 5 mg/g of food from 14 to 31 months after birth
Protocol: To assess the effects of Tempol on gene expression, Tempol was administered to experimental mice at a dose of 5 mg/g of food from 14 months to 31 months after birth. Mice receiving the same food without the addition of Tempol were used as a negative control. At the age of 31 months, the experimental animals were sacrificed and the hearts were surgically removed. The expression of a broad spectrum of genes in the cardiac tissue was assessed using chip-based microarray technology. Such chips are well known in the art and are widely used to assess gene expression.

CC1(C)CC(O)CC(C)(C)N1[O] [Tempol, 4-hydroxy-2,2,6,6-tetramethylpiperidine-1-oxyl]
Fold change (SIRT2 expression in cardiac tissue after Tempol administration) (hearts at 31 months, vs. same food without Tempol, P-value 0.00): 1.16
SIRT2 expression in the cardiac tissue (microarray, vs. negative control): statistically significant increase in expression
